Structures can show the parent of a compound that is named as a salt.
Target: T1, human GPR119 (hGPR119) (Homo sapiens, UniProt Q8TDV5)
T1 construct: expressed in transfected cells
T1 sequence (Q8TDV5 1-335): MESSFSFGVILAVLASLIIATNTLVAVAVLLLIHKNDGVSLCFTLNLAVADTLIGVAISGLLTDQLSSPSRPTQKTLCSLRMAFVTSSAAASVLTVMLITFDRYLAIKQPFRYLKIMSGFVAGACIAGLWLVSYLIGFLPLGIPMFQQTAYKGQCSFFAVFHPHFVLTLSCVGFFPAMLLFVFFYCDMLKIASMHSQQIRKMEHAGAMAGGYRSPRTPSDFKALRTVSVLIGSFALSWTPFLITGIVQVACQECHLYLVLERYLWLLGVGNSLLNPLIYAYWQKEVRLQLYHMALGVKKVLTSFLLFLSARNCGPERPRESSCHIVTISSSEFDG
Test: cAMP accumulation assay (Cisbio cAMP Gs dynamic HTRF kit) in CHO-K1 cells stably expressing human GPR119
Assay type: cell-based
Conditions: 4-parameter fit; for Emax: 1 h, % activity normalized to Max and Min controls; for EC50: 60 minutes at 37° C.
Summary of the method: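 CHO-K1 cells stably expressing hGPR119, used as assay-ready frozen stocks at ~10,000 cells/well, exposed to compound dose-response in stimulation buffer with Tween 80 for 60 min at 37° C. cAMP read by HTRF (665/620 nm ratio), normalised to Max/Min controls; EC50 and Max activity from 4-parameter fit.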

Row | Emax | EC50 | Compound
1 | ≥ 130% | ≤ 100 nM | O=C(Cc1ccc(OCCCC2CCN(c3ncc(Cl)cn3)CC2)cc1F)N1CCC2(CCCN2C[C@H](O)[C@H](O)[C@H](O)CO)C1 (stereo partly drawn) [Example 74, 2-(4-(3-(1-(5-chloropyrimidin-2-yl)piperidin-4-yl)propoxy)-2-fluorophenyl)-1-(1-((2S,3S,4R)-2,3,4,5-tetrahydroxypentyl)-1,7-diazaspiro[4.4]nonan-7-yl)ethan-1-one]
2 | ≥ 130% | ≤ 100 nM | O=C(Cc1ccc(OCCCC2CCN(c3ncc(Cl)cn3)CC2)cc1F)N1CCC2(CCCC2NC[C@H](O)[C@H](O)[C@H](O)CO)C1 (stereo partly drawn) [Example 76, 2-(4-(3-(1-(5-chloropyrimidin-2-yl)piperidin-4-yl)propoxy)-2-fluorophenyl)-1-(6-(((2S,3S,4R)-2,3,4,5-tetrahydroxypentyl)amino)-2-azaspiro[4.4]nonan-2-yl)ethan-1-one]
3 | ≥ 130% | ≤ 100 nM | O=C(Cc1ccc(OCCCC2CCN(c3ncc(Cl)cn3)CC2)cc1F)N1CC2(CCC2NC[C@H](O)[C@H](O)[C@H](O)CO)C1 (stereo partly drawn) [Example 78, 2-(4-(3-(1-(5-chloropyrimidin-2-yl)piperidin-4-yl)propoxy)-2-fluorophenyl)-1-(5-(((2S,3S,4R)-2,3,4,5-tetrahydroxypentyl)amino)-2-azaspiro[3.3]heptan-2-yl)ethan-1-one]
4 | 100 to 130% | ≤ 100 nM | O=C(Cc1ccc(OCCCC2CCN(c3ncc(Cl)cn3)CC2)cc1F)N1CCOC2(CCN(C[C@H](O)[C@H](O)[C@H](O)CO)C2)C1 (stereo partly drawn) [Example 80, 2-(4-(3-(1-(5-chloropyrimidin-2-yl)piperidin-4-yl)propoxy)-2-fluorophenyl)-1-(2-((2S,3S,4R)-2,3,4,5-tetrahydroxypentyl)-6-oxa-2,9-diazaspiro[4.5]decan-9-yl)ethan-1-one]
5 | 100 to 130% | ≤ 100 nM | O=C(Cc1ccc(OCCCC2CCN(c3ncc(Cl)cn3)CC2)cc1F)N1CCOC2(CCN(C[C@H](O)[C@@H](O)[C@H](O)[C@H](O)CO)C2)C1 (stereo partly drawn) [Example 81, 2-(4-(3-(1-(5-chloropyrimidin-2-yl)piperidin-4-yl)propoxy)-2-fluorophenyl)-1-(2-((2S,3R,4R,5R)-2,3,4,5,6-pentahydroxyhexyl)-6-oxa-2,9-diazaspiro[4.5]decan-9-yl)ethan-1-one]
6 | 100 to 130% | ≤ 100 nM | O=C(Cc1ccc(OCCCC2CCN(c3ncc(Cl)cn3)CC2)cc1F)N1CC2(C1)OCC2NC[C@H](O)[C@H](O)[C@H](O)CO (stereo partly drawn) [Example 82, 2-(4-(3-(1-(5-chloropyrimidin-2-yl)piperidin-4-yl)propoxy)-2-fluorophenyl)-1-(3-(((2S,3S,4R)-2,3,4,5-tetrahydroxypentyl)amino)-1-oxa-6-azaspiro[3.3]heptan-6-yl)ethan-1-one]
7 | 100 to 130% | ≤ 100 nM | O=C(Cc1ccc(OCCCC2CCN(c3ncc(Cl)cn3)CC2)cc1F)N1CCC2(CC2NC[C@H](O)[C@H](O)[C@H](O)CO)C1 (stereo partly drawn) [Example 83, 2-(4-(3-(1-(5-chloropyrimidin-2-yl)piperidin-4-yl)propoxy)-2-fluorophenyl)-1-(1-(((2S,3S,4R)-2,3,4,5-tetrahydroxypentyl)amino)-5-azaspiro[2.4]heptan-5-yl)ethan-1-one]
8 | ≥ 130% | ≤ 100 nM | O=C(Cc1c(F)cc(OCCCC2CCN(c3ncc(Cl)cn3)CC2)cc1F)N1CCN(C[C@H](O)[C@@H](O)[C@H](O)[C@H](O)CO)CC1 [Example 85, 2-(4-(3-(1-(5-chloropyrimidin-2-yl)piperidin-4-yl)propoxy)-2,6-difluorophenyl)-1-(4-((2S,3R,4R,5R)-2,3,4,5,6-pentahydroxyhexyl)piperazin-1-yl)ethan-1-one formate]
9 | 100 to 130% | > 10000 nM | O=C(Cc1ccc(OCCCC2CCN(c3ncc(Cl)cn3)CC2)cn1)N1CCN(C[C@H](O)[C@@H](O)[C@H](O)[C@H](O)CO)CC1 [Example 88, 2-(5-(3-(1-(5-chloropyrimidin-2-yl)piperidin-4-yl)propoxy)pyridin-2-yl)-1-(4-((2S,3R,4R,5R)-2,3,4,5,6-pentahydroxyhexyl)piperazin-1-yl)ethan-1-one]
10 | 100 to 130% | 100 to 1000 nM | O=C(Cc1ncc(OCCCC2CCN(c3ncc(Cl)cn3)CC2)cc1F)N1CCN(C[C@H](O)[C@@H](O)[C@H](O)[C@H](O)CO)CC1 [Example 89, 2-(5-(3-(1-(5-chloropyrimidin-2-yl)piperidin-4-yl)propoxy)-3-fluoropyridin-2-yl)-1-(4-((2S,3R,4R,5R)-2,3,4,5,6-pentahydroxyhexyl)piperazin-1-yl)ethan-1-one]
11 | 100 to 130% | 100 to 1000 nM | O=C(Cc1ccc(OCCCC2CCN(c3ncc(Cl)cn3)CC2)nc1)N1CCN(C[C@H](O)[C@@H](O)[C@H](O)[C@H](O)CO)CC1 [Example 90, 2-(6-(3-(1-(5-chloropyrimidin-2-yl)piperidin-4-yl)propoxy)pyridin-3-yl)-1-(4-((2S,3R,4R,5R)-2,3,4,5,6-pentahydroxyhexyl)piperazin-1-yl)ethan-1-one]
12 | 100 to 130% | 100 to 1000 nM | O=C(Cc1ccc(OCCCC2CCN(c3ncc(Cl)cn3)CC2)c(F)c1)N1CCN(C[C@H](O)[C@@H](O)[C@H](O)[C@H](O)CO)CC1 [Example 91, 2-(4-(3-(1-(5-chloropyrimidin-2-yl)piperidin-4-yl)propoxy)-3-fluorophenyl)-1-(4-((2S,3R,4R,5R)-2,3,4,5,6-pentahydroxyhexyl)piperazin-1-yl)ethan-1-one]
13 | 100 to 130% | ≤ 100 nM | CCc1cnc(N2CCC(CCCOc3ccc(CC(=O)N4CCN(C[C@H](O)[C@@H](O)[C@H](O)[C@H](O)CO)CC4)c(F)c3)CC2)nc1 [Example 92, 2-(4-(3-(1-(5-ethylpyrimidin-2-yl)piperidin-4-yl)propoxy)-2-fluorophenyl)-1-(4-((2S,3R,4R,5R)-2,3,4,5,6-pentahydroxyhexyl)piperazin-1-yl)ethan-1-one]
14 | 100 to 130% | ≤ 100 nM | CCc1cnc(N2CCC(CCCOc3cc(F)c(CC(=O)N4CCN(C[C@H](O)[C@@H](O)[C@H](O)[C@H](O)CO)CC4)c(F)c3)CC2)nc1 [Example 93, 2-(4-(3-(1-(5-ethylpyrimidin-2-yl)piperidin-4-yl)propoxy)-2,6-difluorophenyl)-1-(4-((2S,3R,4R,5R)-2,3,4,5,6-pentahydroxyhexyl)piperazin-1-yl)ethan-1-one]
15 | 100 to 130% | ≤ 100 nM | CCCc1cnc(N2CCC(CCCOc3ccc(CC(=O)N4CCN(C[C@H](O)[C@@H](O)[C@H](O)[C@H](O)CO)CC4)c(F)c3)CC2)nc1 [Example 94, 2-(2-fluoro-4-(3-(1-(5-propylpyrimidin-2-yl)piperidin-4-yl)propoxy)phenyl)-1-(4-((2S,3R,4R,5R)-2,3,4,5,6-pentahydroxyhexyl)piperazin-1-yl)ethan-1-one]
16 | 100 to 130% | ≤ 100 nM | CCCc1cnc(N2CCC(CCCOc3cc(F)c(CC(=O)N4CCN(C[C@H](O)[C@@H](O)[C@H](O)[C@H](O)CO)CC4)c(F)c3)CC2)nc1 [Example 95, 2-(2,6-difluoro-4-(3-(1-(5-propylpyrimidin-2-yl)piperidin-4-yl)propoxy)phenyl)-1-(4-((2S,3R,4R,5R)-2,3,4,5,6-pentahydroxyhexyl)piperazin-1-yl)ethan-1-one]
17 | 100 to 130% | 100 to 1000 nM | CCOc1cnc(N2CCC(CCCOc3ccc(CC(=O)N4CCN(C[C@H](O)[C@@H](O)[C@H](O)[C@H](O)CO)CC4)c(F)c3)CC2)nc1 [Example 96, 2-(4-(3-(1-(5-ethoxypyrimidin-2-yl)piperidin-4-yl)propoxy)-2-fluorophenyl)-1-(4-((2S,3R,4R,5R)-2,3,4,5,6-pentahydroxyhexyl)piperazin-1-yl)ethan-1-one]
18 | 100 to 130% | ≤ 100 nM | CCOc1cnc(N2CCC(CCCOc3cc(F)c(CC(=O)N4CCN(C[C@H](O)[C@@H](O)[C@H](O)[C@H](O)CO)CC4)c(F)c3)CC2)nc1 [Example 97, 2-(4-(3-(1-(5-ethoxypyrimidin-2-yl)piperidin-4-yl)propoxy)-2,6-difluorophenyl)-1-(4-((2S,3R,4R,5R)-2,3,4,5,6-pentahydroxyhexyl)piperazin-1-yl)ethan-1-one]
19 | 100 to 130% | 100 to 1000 nM | COCc1cnc(N2CCC(CCCOc3ccc(CC(=O)N4CCN(C[C@H](O)[C@@H](O)[C@H](O)[C@H](O)CO)CC4)c(F)c3)CC2)nc1 [Example 98, 2-(2-fluoro-4-(3-(1-(5-(methoxymethyl)pyrimidin-2-yl)piperidin-4-yl)propoxy)phenyl)-1-(4-((2S,3R,4R,5R)-2,3,4,5,6-pentahydroxyhexyl)piperazin-1-yl)ethan-1-one]

Row | Compound | Emax | EC50
20 | O=C(Cc1ccc(OCCCCC2CCN(c3ncc(Cl)cn3)CC2)cc1F)N1CCN(C[C@H](O)[C@@H](O)[C@H](O)[C@H](O)CO)CC1 [Example 86, 2-(4-(4-(1-(5-chloropyrimidin-2-yl)piperidin-4-yl)butoxy)-2-fluorophenyl)-1-(4-((2S,3R,4R,5R)-2,3,4,5,6-pentahydroxyhexyl)piperazin-1-yl)ethan-1-one] | 100 to 130% | ≤ 100 nM
21 | O=C(Cc1c(F)cc(OCCCCC2CCN(c3ncc(Cl)cn3)CC2)cc1F)N1CCN(C[C@H](O)[C@@H](O)[C@H](O)[C@H](O)CO)CC1 [Example 87, 2-(4-(4-(1-(5-chloropyrimidin-2-yl)piperidin-4-yl)butoxy)-2,6-difluorophenyl)-1-(4-((2S,3R,4R,5R)-2,3,4,5,6-pentahydroxyhexyl)piperazin-1-yl)ethan-1-one] | ≥ 130% | ≤ 100 nM

Reference: patent US20240217983A1, “GPR119 AGONISTS” (Kallyope, Inc., priority 2021, published 2024)
